Measurements from patent publication US11945779B2, “Inhibitors of cancer metastasis through inhibiting migration and invasion of cancer cells” (VSpharmtech, priority 2018, dated 2024).

Columns and labels:
[1] = system: colon cancer cell line DLD-1; experiment: Trans-well cancer cell migration inhibition, DLD-1; format: cell-based, human; settings: for IC50: Colon cancer cell DLD-1, trans-well, 16 hours, read-out: Concentration inhibiting migration of cancer cells by 50% (IC50 value)
Description: (§1) In order to analyze cancer cell migration inhibitory activity of CG-608, CG-609 or CG-618 prepared in Examples 1, 2, or 9, cell migration inhibitory activity was measured using a trans-well by targeting a colon cancer cell line DLD-1 (ATCC-CCL-221), pancreatic cancer cell lines AsPc-1 (ATCC-CCL-1682). CFPAC-1 (ATCC-CCL-1918). Panc-1 (ATCC-CCL-1469), and Miapaca-2 (ATCC-CCL-1420), a skin cancer cell line A375-P (ATCC-CCL-3224), lung cancer cell lines HCC-827 (ATCC-CCL-2868), A549 (ATCC-CCL-185), and NCI-H460 (ATCC-CCL-177), a prostate cancer cell line DU145 (ATCC-HTB-81), a stomach cancer cell line NuGC-3 (JCRB0822), and an ovarian cancer cell line SKOV-3 (ATCC-HTB-77).
(§2) First, the number of DLD-1 cells was measured using a hemocytometer in an RPMI medium without FBS. Thereafter, the trans-well was placed on a 24-well plate and 8×10^4 cells/200 mL of cells were added. In an empty space with the trans-well on the well plate, 500 mL of an RPM medium having 10% FBS containing CG-608, CG-609, or CG-618 was added and cultured in a CO2 incubator at 37° C. for 16 hours. After culture, […] of crystal violet (5 mg/mL of 20% […] was added to each well of the 24-well plate and the trans-well was dyed at room temperature for 30 minutes. The dyed trans-well was washed with PBS and non-migrated cells were wiped off with cotton swabs. The prepared sample was photographed with an inverted microscope mounted with a digital camera (TE 300, Nikon. Japan) and then the number of migrated cells was counted. The degree of inhibiting cell migration was calculated by Equation 1 for a group treated with the sample compared to a control group (DMSO).
In Equation 1, ‘the number of migrated cells treated with sample’ refers to the number of migrated cells measured by treating CG-608 or CG-618 of Example 1, and ‘the number of migrated cells of a control sample’ refers to the number of migrated cells measured by treating only 1% dimethyl sulfoxide (DMSO) instead of the compound.

[2] = system: human pancreatic cancer cell line AsPc-1; experiment: Lamellipodia formation inhibition (confocal microscope), AsPc-1; format: cell-based; settings: AsPc-1, 6 hours, FIG. 9
Description: (§3) A human colon cancer cell line DLD-1, a human pancreatic cancer cell line AsPc-1, a human melanoma cell line A375P, and normal cells MCF10A were each cultured to 1×10^5 cell density on a 35 mm high-m dish plate (ibid GmbH). The cells attached to the plate were washed with phosphate buffered saline (PBS) and then treated with DMSO or CG-618 dissolved in DMSO for 6 hours. After removing the cell culture medium from the plate, the plate was washed two times with PBS and treated with 4% paraformaldehyde dissolved in PBS at room temperature for 10 minutes to immobilize the cells. The plate was washed with PBS once and then treated with 0.2% Triton X-100 at room temperature for 10 minutes to enhance cell permeability. The plate was washed with PBS and treated with 1% BSA dissolved in PBS at room temperature for 1 hour to block non-specific bonds. In order to check the distribution in cells of filament actin (F-actin), phalloidin bound with Alexa Fluor 488, which was specifically bound with F-actin, was treated at room temperature for 15 minutes. The plate was washed with PBS three times and then treated with 2 mg/mL 4′,6′-diamidino-2-phenylindole (DAPAI) dissolved in PBS for two minutes at room temperature to dye the nucleus. The plate was washed with PBS three times and filled with 1 mL PBS. […] The obtained images were analyzed by an analysis program (LSM Version 3.2 software).

[3] = system: human colon cancer cell line DLD-1; experiment: Lamellipodia formation inhibition (confocal microscope), DLD-1; format: cell-based; settings: DLD-1, 6 hours, FIG. 9
Description: as §3

[4] = system: normal cell line MCF-10A; experiment: Real-time single cell migration imaging (HoloMonitor M4), MCF-10A; format: cell-based; settings: 24 hours, FIG. 7
Description: An effect of a drug on migration of single cells was confirmed using HoloMonitor M4 (Phase Holographic Imaging), real-time cell migration imaging and analysis equipment. All experiments were performed within a 37° C. cell incubator to analyze cell migration while cells were alive for a long time. To prevent water vapor generated during cell imaging for a long time from obstructing the imaging, the experiment was conducted by dividing cells in an m-slide microcopy chamber (Ibidi). In order to analyze migration of single cells, cells (2.5×10^5 cells/mL) to be analyzed were divided to the m-slide microscopy chamber by 0.2 mL and cultured for more than 12 hours. The cells were sufficiently attached to its original shape and then treated with the drug, and a position to be analyzed was specified, and then the cell migration was measured in real time.
The cell migration was measured for 24 hours at five-minute intervals, and migration of 25 cells per group was analyzed. Using the HoloMonitor tracking software, a total distance migrated by the cells during the time measured, a linear distance from the starting point to the arrival point, a rate of migration, and a direction were quantitatively analyzed, and the migration of single cells was visualized with a Wind-Rose plot (FIG. 7).

[5] = system: pancreatic cancer cell line AsPc-1; experiment: Cytotoxicity / proliferation analysis (WST-1), AsPc-1; format: cell-based, human; settings: AsPc-1, FIG. 8
Description: In order to verify cytotoxicity of CG-608 to CG-610 and CG-613 to CG-618 prepared in Examples 1 to 9, human colon cancer cell line DLD-1 cells (ATCC-CCL-221), pancreatic cancer cell line AsPc-1 cells (ATCC-CRL-1682), and normal cells MCF10A (ATCC-CRL-10317) were cultured in an RPMI medium containing 10% bovine fetal serum (FBS) while maintaining 37° C. and 5% CO2, and then the cells were detached using a 0.05% trypsin-EDTA. 4×10^3 cells calculated by a hematocytometer were inoculated in each well of a 96-well plate containing a 10% FBS containing medium and cultured in a 37° C. incubator containing 5% C2.
After 24 hours, the medium of each well was exchanged to a new medium containing a control group (0.1% DMSO) and CG-609 prepared in Example 1 or CG-618 prepared in Example 9 as a representative benproperine derivative at concentrations of 1 μM, 5 μM, and 10 μM. Thereafter, the cells were cultured in an incubator at 37° C. and 5% CO2 for 48 hours. Thereafter, […] of WST-1 (Roche) was added to each well and cultured for 2 hours, and then the absorbance was measured at 450 nm using an ELISA reader (Bio-Rad).

[6] = system: lung cancer cells A549; experiment: Trans-well cancer cell migration inhibition, A549; format: cell-based; settings: A549, concentration not given, FIG. 3
Description: as §1
as §2, with “Thereafter, the trans-well was placed on a 24-well plate and 8×10^4 cells/200 mL of cells were added. In an empty space with the trans-well on the well plate, 500 mL of an RPM medium having 10% FBS containing CG-608, CG-609, or CG-618 was added and cultured in a CO2 incubator at 37° C. for 16 hours.” left out, “(DMSO). […]” for “(DMSO).”

Row | Compound | IC50 ([1]; Homo sapiens) | Formation of lamellipodia [2] | Formation of lamellipodia [3] | Migration of single normal cells (real-time imaging) [4] | Growth of cancer cells [5] | Cancer cell migration inhibitory activity relative to the benproperine derivative compound known in the related art ([1]; DLD-1) | inhibition at 0.05 µM ([1]; Homo sapiens, DLD-1, 50 nM, FIG. 4A) | inhibition at 1 µM ([1]; Homo sapiens, DLD-1, 1 μM, FIG. 3) | Inhibition of cell migration [6]
1 | CC1CCCCN1C(C)COc1ccccc1Cc1ccccc1 (racemic) [CG-618, 1-(1-(2-benzylphenoxy)propan-2-yl)-2-methylpiperidine] | 550 nM | inhibits formation of lamellipodia | inhibits formation of lamellipodia | increased | did not affect the growth | – | – | – | –
2 | C[C@H](COc1ccccc1Cc1ccccc1)N1CCCC[C@@H]1C [CG-609, (S)-1-((R)-1-(2-benzylphenoxy)propan-2-yl)-2-methylpiperidine] | 60 nM | – | – | – | did not affect the growth | more than 20 times | ≥ 50% | ≥ 50% | ≥ 50%
